Results taken from US11202815B2, “Composition for preventing, treating or improving prostate disease containing acanthopanax sessiliflorus, phragmites rhizome, and pinus densiflora extracts as active ingredient” (GENOME & MEDICINE CO., LTD., priority 2017, dated 2021).

Tested on: 5α-reductase type 2 (SRD5A2)
Assay: Western blotting of 5α-reductase type 2 (SRD5A2) protein expression level
Format: cell-based
Conditions: 0.40 mM, cultured for 24 hours, FIG. 8
Experimental: 5α-reductase had total three types of subtypes (types 1, 2 and 3), in which types 1 and 3 have been studied for diseases such as male hair loss or acne and type 2 was directly associated with benign prostatic hyperplasia.
As a result, in Example 6, a 5α-reductase type 2 (SRD5A2) protein expression level was analyzed by Western blotting to confirm 5α-reductase inhibitory activity.
Specifically, the cells were divided at a concentration of 2.0×10^5 cell/well and treated with 100 μg/ml of the Acanthopanax sessiliflorus extract, 600 μg/ml of the Pinus densiflora extract, 600 μg/ml of the Phragmites rhizome extract, or 350 μg/ml of the complex extract (Extract 4) obtained by mixing the extracts at 4:2:1 in a PRMI1640 medium containing 1% fetal bovine serum (FBS), and then cultured for 24 hours.
Finasteride, which has been sold as a 5α-reductase inhibitor on the market, was used as a positive control.
Then, the cultured cells were lysed, filtered with a 0.45 μm mesh, and subjected to Western blotting according to a procedure shown in FIG. 7.
Specifically, a primary antibody (Anti-SRD5A2, Sigma) was diluted to 1:200 and treated, and a secondary antibody (m-IgGP-HRP, Santa Cruz) was diluted to 1:3000 and treated, and then the expression levels of 5α-reductase type 2 according to treatment of each extract and each compound were confirmed.

Structure (SMILES)	expression levels of 5α-reductase type 2
O=C(O)/C=C/c1ccc(O)cc1 [p-coumaric acid]	significantly reduced
COc1cc([C@@H]2OC[C@@H]3[C@H]2CO[C@H]3c2cc(OC)c(O[C@@H]3O[C@H](CO)[C@@H](O)[C@H](O)[C@H]3O)c(OC)c2)cc(OC)c1O[C@@H]1O[C@H](CO)[C@@H](O)[C@H](O)[C@H]1O [acanthoside D]	significantly reduced
